Reference: the supplement of paper PMC10331698
± gives the standard deviation of the averaged measurements.

Columns and labels:
Test in all cases: level (log10 ratio to DMSO vehicle control); higher = higher biomarker level / cell amount than vehicle control
Conditions in all cases: in DMSO
Perfluoropentanoic acid = compound: O=C(O)C(F)(F)C(F)(F)C(F)(F)C(F)(F)F [Perfluoropentanoic acid]
Procedure: (§1)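 BioMAP Diversity Plus panel of 12 human primary cell co-culture systems (3C, 4H, LPS, SAg, BT, BF4T, BE3C, CASM3C, HDF3CGF, KF3CT, MyoF, Mphg). Compounds were added 1 h before stimulation and left for 24 h (MyoF 48 h; BT 72 h for soluble read-outs or 6 d for IgG). Biomarkers were read by ELISA, cytotoxicity by SRB, PBMC viability and proliferation by Alamar Blue. Each well value was divided by the mean of 8 DMSO control wells on the same plate and log10 transformed; duplicate blinded samples were tested at 4 concentrations.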

Perfluorodecanoic acid = compound: O=C(O)C(F)(F)C(F)(F)C(F)(F)C(F)(F)C(F)(F)C(F)(F)C(F)(F)C(F)(F)C(F)(F)F [Perfluorodecanoic acid]
Procedure: as §1

[1] = compound: COC(=O)CCC(F)(F)C(F)(F)C(F)(F)C(F)(F)F [Methyl 2H,2H,3H,3H-perfluoroheptanoate]
Procedure: as §1

[2] = compound: O=C(O)C(F)(F)OC(F)(F)C(F)(F)OC(F)(F)F [Perfluoro-3,6-dioxaheptanoic acid]
Procedure: as §1

[3] = compound: C=CC(F)(F)C(F)(F)C(F)(F)C(F)(F)C(F)(F)C(F)(F)C(F)(F)C(F)(F)C=C [1,8-Divinylperfluorooctane]
Procedure: as §1

[4] = compound: O=C(O)C(F)(F)C(F)(F)C(F)(F)OC(F)(C(F)(F)F)C(F)(F)F [Perfluoro-4-isopropoxybutanoic acid]
Procedure: as §1

Pentafluoropropionamide = compound: NC(=O)C(F)(F)C(F)(F)F [Pentafluoropropionamide]
Procedure: as §1

Test System	level (log10) (Perfluoropentanoic acid; 6700 nM)	level (log10) (Perfluoropentanoic acid; 20000 nM)	level (log10) (Perfluoropentanoic acid; 60000 nM)	level (log10) (Perfluorodecanoic acid; 6700 nM)	level (log10) (Perfluorodecanoic acid; 20000 nM)	level (log10) ([1]; 6700 nM)	level (log10) ([1]; 20000 nM)	level (log10) ([1]; 60000 nM)	level (log10) ([2]; 6700 nM)	level (log10) ([2]; 20000 nM)	level (log10) ([2]; 60000 nM)	level (log10) ([3]; 6700 nM)	level (log10) ([3]; 20000 nM)	level (log10) ([4]; 6700 nM)	level (log10) ([4]; 20000 nM)	level (log10) ([4]; 60000 nM)	level (log10) (Pentafluoropropionamide; 6700 nM)	level (log10) (Pentafluoropropionamide; 20000 nM)	level (log10) (Pentafluoropropionamide; 60000 nM)
lMphg:CD106/VCAM-1	0.005 ± 0.02	0.0125 ± 0.018	0.016 ± 0.0057	0.004 ± 0.0014	-0.0145 ± 0.053	-0.0055 ± 0.012	0.009 ± 0.0057	0.0055 ± 0.037	-0.004 ± 0.02	0.007 ± 0.014	-0.004 ± 0.04	-0.014 ± 0.018	-0.016 ± 0.016	-0.0135 ± 0.013	0.0015 ± 0.028	0.014 ± 0.0057	0.0015 ± 0.033	-0.009 ± 0.021	-0.0045 ± 0.043
HDF3CGF:Collagen I	-0.0295 ± 0.012	-0.01 ± 0.0014	0.003 ± 0.064	-0.02 ± 0.025	-0.0095 ± 0.04	0.0615 ± 0.071	0.0465 ± 0.016	0.051 ± 0.041	0.0055 ± 0.0064	0.049 ± 0.0085	0.069 ± 0.0014	0.043 ± 0.054	0.0595 ± 0.016	-0.0285 ± 0.067	-0.043 ± 0.078	0.032 ± 0.12	0.039 ± 0.075	0.0205 ± 0.033	0.055 ± 0.047
KF3CT:PAI-I	0.0005 ± 0.021	-0.003	0.004 ± 0.0057	-0.0365 ± 0.023	-0.144 ± 0.042	-0.01 ± 0.013	-0.009 ± 0.0042	-0.0105 ± 0.0092	0.0035 ± 0.096	0.009 ± 0.0085	0.008 ± 0.072	0.0215 ± 0.00071	0.018 ± 0.013	-0.019 ± 0.0028	-0.0265 ± 0.015	-0.0125 ± 0.018	-0.006 ± 0.0057	0.002 ± 0.0014	0.0075 ± 0.0021
lMphg:SRB-Mphg	-0.0125 ± 0.022	0.001 ± 0.0071	0.006 ± 0.017	0.0065 ± 0.00071	-0.005 ± 0.0085	-0.0285 ± 0.012	-0.022 ± 0.095	0.04 ± 0.057	-0.053 ± 0.0014	-0.079 ± 0.13	-0.076 ± 0.19	-0.0135 ± 0.016	0.0495 ± 0.0092	-0.0085 ± 0.012	-0.0025 ± 0.005	-0.019 ± 0.0028	-0.0135 ± 0.074	0.0555 ± 0.043	0.0595 ± 0.0078
CASM3C:SRB	0.0095 ± 0.0021	-0.008 ± 0.0014	0.004 ± 0.0099	0.0055 ± 0.0064	0.0055 ± 0.0064	0.003 ± 0.0042	-0.003 ± 0.013	-0.0015 ± 0.0035	-0.0065 ± 0.00071	-0.002 ± 0.0028	-0.0005 ± 0.0035	0.002 ± 0.0042	-0.003 ± 0.0014	0.0015 ± 0.005	-0.007 ± 0.0071	0.0015 ± 0.012	-0.002 ± 0.0057	0 ± 0.0085	-0.0045 ± 0.00071
CASM3C:CD106/VCAM-1	-0.0225 ± 0.0078	-0.0565 ± 0.029	-0.009 ± 0.0057	0.0015 ± 0.0092	-0.036 ± 0.0085	-0.021 ± 0.027	-0.019 ± 0.0071	-0.0085 ± 0.005	0.0345 ± 0.029	0.0105 ± 0.037	-0.06 ± 0.021	-0.018 ± 0.0042	-0.019 ± 0.02	-0.003 ± 0.0071	-0.016 ± 0.016	-0.007 ± 0.021	-0.016 ± 0.016	-0.014 ± 0.02	-0.022 ± 0.011
HDF3CGF:TIMP-2	0.009 ± 0.024	-0.0155 ± 0.018	-0.0025 ± 0.011	-0.006 ± 0.028	-0.349 ± 0.17	0.0295 ± 0.019	-0.0065 ± 0.03	0.0195 ± 0.043	-0.018 ± 0.062	0.003 ± 0.047	0.008 ± 0.045	0.025 ± 0.013	-0.0115 ± 0.012	-0.008 ± 0.017	0.0335 ± 0.022	-0.004 ± 0.023	-0.0185 ± 0.026	0.008 ± 0.0057	0.033 ± 0.013
HDF3CGF:CXCL9/MIG	-0.004 ± 0.0057	-0.004 ± 0.018	-0.003 ± 0.02	-0.069 ± 0.048	-0.27 ± 0.061	0.014	0.0255 ± 0.021	-0.0225 ± 0.013	-0.011 ± 0.014	0.0145 ± 0.0064	-0.02 ± 0.047	0.006 ± 0.0057	-0.001 ± 0.024	-0.0125 ± 0.023	0.0185 ± 0.005	0.009 ± 0.024	-0.016 ± 0.0042	0.0095 ± 0.00071	0.0015 ± 0.0078
HDF3CGF:MMP-1	-0.0165 ± 0.013	-0.0215 ± 0.0021	-0.0215 ± 0.011	-0.041 ± 0.0028	-0.174 ± 0.08	0 ± 0.011	-0.003 ± 0.018	-0.004 ± 0.025	-0.009 ± 0.0099	0.0085 ± 0.013	-0.014 ± 0.03	-0.0035 ± 0.005	0.0165 ± 0.012	-0.0055 ± 0.0035	0 ± 0.0028	-0.0015 ± 0.011	0.006 ± 0.0085	-0.011 ± 0.0085	-0.01
MyoF:bFGF	-0.021 ± 0.0014	-0.0085 ± 0.0078	-0.0055 ± 0.0035	0.001 ± 0.0042	0.0055 ± 0.0035	-0.0125 ± 0.012	-0.008 ± 0.013	-0.0075 ± 0.019	-0.021 ± 0.023	0.0045 ± 0.023	-0.0095 ± 0.021	0.001 ± 0.0099	0.012 ± 0.02	-0.014 ± 0.016	-0.0225 ± 0.026	-0.004 ± 0.027	-0.002 ± 0.0042	0.0105 ± 0.012	-0.0005 ± 0.029
3C:CCL2/MCP-1	-0.0105 ± 0.00071	0.0005 ± 0.0021	0.0215 ± 0.019	0.0065 ± 0.013	-0.004 ± 0.0028	0.011 ± 0.0085	0.007 ± 0.013	0.0285 ± 0.028	-0.023 ± 0.044	-0.015 ± 0.013	-0.023 ± 0.021	-0.0055 ± 0.0021	0.031 ± 0.025	-0.005 ± 0.016	0.001 ± 0.0071	0.0375 ± 0.018	0.006 ± 0.018	-0.007 ± 0.0099	0.0275 ± 0.00071
HDF3CGF:CXCL11/I-TAC	-0.0085 ± 0.012	-0.0065 ± 0.015	0.005 ± 0.054	0.046 ± 0.0014	-0.469 ± 0.28	-0.002 ± 0.013	0.0215 ± 0.0021	-0.0055 ± 0.011	-0.017 ± 0.0057	-0.0035 ± 0.022	-0.0035 ± 0.012	0.0135 ± 0.013	0.016 ± 0.037	0.002 ± 0.021	0.008 ± 0.0042	-0.0025 ± 0.00071	0.0135 ± 0.0035	0.0195 ± 0.018	0.022 ± 0.024
lMphg:sIL-10	-0.017 ± 0.013	-0.075 ± 0.025	-0.0845 ± 0.05	-0.018 ± 0.055	-0.036 ± 0.028	-0.0515 ± 0.029	-0.117 ± 0.12	0.0005 ± 0.037	-0.0215 ± 0.0035	0.0045 ± 0.012	-0.108 ± 0.044	-0.053 ± 0.085	-0.0135 ± 0.03	-0.116 ± 0.018	-0.04 ± 0.047	-0.187 ± 0.031	-0.0095 ± 0.044	-0.01 ± 0.028	-0.0635 ± 0.12
3C:CD62E/E-Selectin	-0.0085 ± 0.0035	0.0005 ± 0.0064	0.0175 ± 0.026	-0.004 ± 0.0085	0.0025 ± 0.019	-0.037 ± 0.0071	-0.012 ± 0.013	0.0005 ± 0.022	-0.0045 ± 0.016	-0.02 ± 0.017	0.01 ± 0.0071	-0.0305 ± 0.025	-0.014 ± 0.024	-0.007 ± 0.023	-0.015 ± 0.03	0.023 ± 0.0099	-0.0075 ± 0.0078	-0.005 ± 0.011	0.005 ± 0.018
